Experimental data as given in publication PMC3972818 (Nature medicine, 2014).
≈ marks a conversion by molar mass, not a printed value.

How the values were obtained:
[1] = test system: M. tuberculosis ATCC 35837; assay: microbe, parasite or virus in culture; assay type: cell-based; conditions: Mycobacterium tuberculosis, ATCC35837
M. tuberculosis H37Rv = assay: MIC, microbroth dilution; assay type: cell-based; conditions: Mycobacterium tuberculosis
[2] = test system: M. tuberculosis ATCC 35822; assay type: cell-based, Mycobacterium tuberculosis
[3] = test system: M. tuberculosis ATCC 35820; assay type: cell-based, Mycobacterium tuberculosis
[4] = test system: M. tuberculosis ATCC 35838; assay type: cell-based, Mycobacterium tuberculosis
[5] = test system: M. tuberculosis H37Rv-HL-14; assay type: cell-based, Mycobacterium tuberculosis
[6] = test system: M. tuberculosis H37Rv-HL-15; assay type: cell-based, Mycobacterium tuberculosis

Row | Structure (SMILES) | MIC [1] [µg/mL] | MIC (M. tuberculosis H37Rv) [µg/mL] | MIC [2] [µg/mL] | MIC [3] [µg/mL] | MIC [4] [µg/mL] | MIC [5] [µg/mL] | MIC [6] [µg/mL]
1 | CC[C@@H](CO)NCCN[C@@H](CC)CO [Ethambutol] | > 25 |  |  |  |  |  | 
2 | [H]/N=C(/N)N[C@H]1[C@H](O)[C@@H](O)[C@H](O[C@@H]2O[C@@H](C)[C@](O)(C=O)[C@H]2O[C@@H]2O[C@@H](CO)[C@H](O)[C@@H](O)[C@@H]2NC)[C@@H](N/C(N)=N\[H])[C@@H]1O [Streptomycin, streptomycin] | 1.6 (≈ 2.75 µM) | 1.6 (≈ 2.75 µM) | 1.6 (≈ 2.75 µM) | >200 | 1.6 (≈ 2.75 µM) | 1.6 (≈ 2.75 µM) | 1.6 (≈ 2.75 µM)
3 | CN[C@@H]1[C@H](O)[C@H](NC)[C@H]2O[C@@]3(O)C(=O)C[C@@H](C)O[C@H]3O[C@@H]2[C@H]1O [Spectinomycin, spectinomycin] | 100 (≈ 301 µM) | 100 (≈ 301 µM) | 100 (≈ 301 µM) | 200 (≈ 602 µM) | 100 (≈ 301 µM) | >200 | >200
